Test results published in ChEMBL document CHEMBL2074541, “TP-search Transporter Database” (Hepatology, 1999).

T1: Solute carrier organic anion transporter family member 1A1 (Rattus norvegicus, UniProt P46720)
T1 sequence (P46720 whole entry): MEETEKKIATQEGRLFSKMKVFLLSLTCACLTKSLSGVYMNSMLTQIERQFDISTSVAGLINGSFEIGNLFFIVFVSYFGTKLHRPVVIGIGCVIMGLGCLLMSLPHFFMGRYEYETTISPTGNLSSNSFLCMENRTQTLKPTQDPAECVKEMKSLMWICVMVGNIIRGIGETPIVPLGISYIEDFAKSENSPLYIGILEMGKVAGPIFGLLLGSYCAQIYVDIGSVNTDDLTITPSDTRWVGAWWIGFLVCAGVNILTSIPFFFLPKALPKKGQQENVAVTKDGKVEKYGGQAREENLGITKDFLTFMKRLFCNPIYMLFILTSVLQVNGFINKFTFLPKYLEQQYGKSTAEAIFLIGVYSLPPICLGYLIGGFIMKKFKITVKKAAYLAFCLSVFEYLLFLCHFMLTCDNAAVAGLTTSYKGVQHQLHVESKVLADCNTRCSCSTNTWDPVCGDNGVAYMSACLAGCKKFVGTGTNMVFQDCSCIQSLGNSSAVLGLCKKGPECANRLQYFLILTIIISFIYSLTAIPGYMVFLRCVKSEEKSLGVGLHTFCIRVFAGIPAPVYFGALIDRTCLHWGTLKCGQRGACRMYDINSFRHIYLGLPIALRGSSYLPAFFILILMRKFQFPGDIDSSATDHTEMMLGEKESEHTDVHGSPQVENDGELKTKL

B1: Solute carrier organic anion transporter family member 1A1 (Rattus norvegicus) (protein)
chain: MEETEKKIATQEGRLFSKMKVFLLSLTCACLTKSLSGVYMNSMLTQIERQFDISTSVAGLINGSFEIGNLFFIVFVSYFGTKLHRPVVIGIGCVIMGLGCLLMSLPHFFMGRYEYETTISPTGNLSSNSFLCMENRTQTLKPTQDPAECVKEMKSLMWICVMVGNIIRGIGETPIVPLGISYIEDFAKSENSPLYIGILEMGKVAGPIFGLLLGSYCAQIYVDIGSVNTDDLTITPSDTRWVGAWWIGFLVCAGVNILTSIPFFFLPKALPKKGQQENVAVTKDGKVEKYGGQAREENLGITKDFLTFMKRLFCNPIYMLFILTSVLQVNGFINKFTFLPKYLEQQYGKSTAEAIFLIGVYSLPPICLGYLIGGFIMKKFKITVKKAAYLAFCLSVFEYLLFLCHFMLTCDNAAVAGLTTSYKGVQHQLHVESKVLADCNTRCSCSTNTWDPVCGDNGVAYMSACLAGCKKFVGTGTNMVFQDCSCIQSLGNSSAVLGLCKKGPECANRLQYFLILTIIISFIYSLTAIPGYMVFLRCVKSEEKSLGVGLHTFCIRVFAGIPAPVYFGALIDRTCLHWGTLKCGQRGACRMYDINSFRHIYLGLPIALRGSSYLPAFFILILMRKFQFPGDIDSSATDHTEMMLGEKESEHTDVHGSPQVENDGELKTKL

Tests used:
Type in all cases: functional, cell-based
[1] = biological target: T1, Solute carrier organic anion transporter family member 1A1; test: (§1) TP_TRANSPORTER: uptake in Oatp1-expressing HeLa cells
[2] = substrate: O=C1OC(c2ccc(O)c(S(=O)(=O)O)c2)(c2ccc(O)c(S(=O)(=O)O)c2)c2c(Br)c(Br)c(Br)c(Br)c21; test: as §1
[3] = substrate: C[C@H](CCC(=O)NCCS(=O)(=O)O)C1CC[C@H]2[C@@H]3C[C@H](O)[C@@H]4C[C@H](O)CC[C@]4(C)[C@H]3CC[C@]12C; test: as §1
[4] = substrate: C[C@H](CCC(=O)NCCS(=O)(=O)O)[C@H]1CC[C@H]2[C@@H]3[C@H](O)C[C@@H]4C[C@H](O)CC[C@]4(C)[C@H]3CC[C@]12C; test: as §1

| Molecule | Activity [1] | Km [2] [µM] | Km [3] [µM] | Km [4] [µM] |
| --- | --- | --- | --- | --- |
| C[C@H](CCC(=O)O)[C@H]1CC[C@H]2[C@@H]3C[C@H](O)[C@@H]4C[C@H](O)CC[C@]4(C)[C@H]3CC[C@]12C [HYODEOXYCHOLIC_ACID] | substrate [+] |  |  |  |
| C[C@H](CCC(=O)NCCS(=O)(=O)O)[C@H]1CC[C@H]2[C@@H]3CC[C@H]4C[C@H](O)CC[C@]4(C)[C@H]3C[C@@H](O)[C@]12C [TAUROLAGODEOXYCHOLATE] | substrate [+] |  |  |  |
| C[C@H](CCC(=O)NCCS(=O)(=O)O)[C@H]1CC[C@H]2[C@@H]3C[C@@H](O)[C@@H]4C[C@H](O)CC[C@]4(C)[C@H]3CC[C@]12C [TAUROMUROCHOLATE] | substrate [+] |  |  |  |
| B1 |  | 3.3 | 7.5 | 4.9 |
